Test results published in patent US10053667B2, “Differentiation of human pluripotent stem cells to multipotent neural crest cells” (UNIVERSITY OF GEORGIA RESEARCH FOUNDATION, INC., priority 2010, dated 2018).
Entries after “also recorded” stand apart in the source; their conditions may differ.

Tests used:
Type in all cases: cell-based, human
[1] = test system: β-catenin signaling; assay: Top-Flash luciferase reporter assay for β-catenin activity in hESCs; conditions: hESC cultures; Top-Flash normalized to Fop-Flash
Procedure: Data is expressed as the fold-increase in luciferase activity over untreated cells after normalization to the Fop-Flash control. All assays were performed in triplicate and represented as +/−standard deviation. (B) Top-Flash activity in hESCs grown in defined media treated with Wnt3a, Dkk1, Wnt3a and Dkk1 or BIO. Experiments were performed in triplicate and represented as +/−standard deviation.

[2] = test system: WA09 hESCs; assay: hESC differentiation to neural crest-like versus neural progenitor cells, flow cytometry for p75 and Hnk1; conditions: for generation of Hnk1+ p75+ (Hnk1bright p75bright) neural crest-like population: WA09 hESCs treated 15 days, FIG. 2A, factors added to or omitted from SB 431542/BIO media; for proportion of Hnk1bright p75bright cells: dose-response, added to cultures treated with SB 431542 and Noggin, BIO 0-2 µM, Wnt3a 0-50 ng/ml
Procedure: (§1) NPC differentiation was performed as described (18). Briefly, cells were plated on Geltrex-coated plates in defined media without Activin A, supplemented with 20 μM SB 431542 (Tocris) and 500 ng/ml Noggin (R&D systems) for 11 days with or without 2 μM of (2′Z,3′E)-6-Bromoindirubin-3′-oxime (BIO) (GSK3 Inhibitor IX, Calbiochem), or 15 ng/ml Dickkopf (R&D Systems). For direct neural crest differentiation, cells were plated at a density of 1×10^5 cells/cm^2 in defined media lacking Activin A, supplemented with 2 μM BIO and 20 μM SB 431542 (SB media). Media was replaced every day. Additional experiments were performed by adding 25 ng/ml Wnt3a, 500 ng/ml Noggin or 5-50 ng/ml of BMP4 (R&D Systems) to SB media. For peripheral neuron differentiation, neural crest cells were plated in poly-L-ornithine/laminin or Geltrex-coated 4-well chamber slides. The following day, SB media was switched to DMEM/F12 N2 supplemented media with BDNF (10 ng/ml), GDNF (10 ng/ml), NGF (10 ng/ml), neurotrophin-3 (10 ng/ml), ascorbic acid (200 μM) and dbcAMP (0.5 mM). Cells were grown for 10-14 days and assayed by immunocytochemisty. Neural crest cells were cultured in media containing 10% fetal bovine serum and passed every 4-5 days. Osteocyte, adipocyte and chondrocyte differentiation was performed according to manufacturer directions using StemPro Osteogenesis Kit, StemPro Chondrogenesis Differentiation Kit, StemPro Adipogenesis Differentiation Kit (Invitrogen), respectively.
Cells were fixed in 4% paraformaldehyde in phosphate buffered saline (PBS) and stained with primary antibodies listed in attached Table 1 (below). Secondary antibodies were Alexa Fluor 488 and Alexa Fluor 555-conjugated (Invitrogen). DNA was visualized by staining with DAPI. For flow cytometry, one million live cells dissociated with Accutase were re-suspended in PBS and incubated for 30 minutes on ice with primary conjugated antibodies, listed in Table 1. Unconjugated p75 (neurotrophin receptor) and Hnk1 antibodies were detected with Alexa Fluor 633 and Alexa Fluor 488-conjugated secondary antibodies, respectively. Cells were analyzed using the CyAN ADP (Beckman Coulter) and FlowJo software.

[3] = test system: WA09 hESCs; assay: hESC differentiation, immunostaining for neural crest markers (p75, Ap2, Hnk1) and NPC markers (Pax6, Sox2)
Procedure: as §1, with “Briefly, cells were plated on Geltrex-coated plates in defined media without Activin A, supplemented with 20 μM SB 431542 (Tocris) and 500 ng/ml Noggin (R&D systems) for 11 days with or without 2 μM of (2′Z,3′E)-6-Bromoindirubin-3′-oxime (BIO) (GSK3 Inhibitor IX, Calbiochem), or 15 ng/ml Dickkopf (R&D Systems). For direct neural crest differentiation, cells were plated at a density of 1×10^5 cells/cm^2 in defined media lacking Activin A, supplemented with 2 μM BIO and 20 μM SB 431542 (SB media).” left out
Cells were fixed in 4% paraformaldehyde in phosphate buffered saline (PBS) and stained with primary antibodies listed in attached Table 1 (below). […] DNA was visualized by staining with DAPI. For flow cytometry, one million live cells dissociated with Accutase were re-suspended in PBS and incubated for 30 minutes on ice with primary conjugated antibodies, listed in Table 1. […] Cells were analyzed using the CyAN ADP (Beckman Coulter) and FlowJo software.

[4] = BIO added to SB 431542 and Noggin (Smad inhibition), 12 days

O=C1Nc2cc(Br)ccc2/C1=C1/Nc2ccccc2/C1=N\O [BIO, (2′Z,3′E)-6-Bromoindirubin-3′-oxime]
activation of β-catenin-dependent luciferase reporter (canonical Wnt pathway) [1]: activates β-catenin signaling; also recorded: efficiently activates the canonical Wnt pathway
generation of Hnk1+ p75+ (Hnk1bright p75bright) neural crest-like population [2]: ineffective
proportion of Hnk1bright p75bright cells [2]: increased the proportion of Hnk1^bright p75^bright cells in a dose-dependent manner
formation of Pax6+ cells [3, 4]: suppresses this; also recorded: severely inhibited the formation of Pax6^+ cells
percentage of p75+ cells [3, 4]: generates p75+ Pax6− neural crest-like cells; also recorded: markedly increasing the percentage of p75^+ cells
Sox2 expression ([3]; immunostaining, Smad signaling suppressed, range of BIO concentrations): dose-dependent response

NC(=O)c1ccc(-c2nc(-c3ccc4c(c3)OCO4)c(-c3ccccn3)[nH]2)cc1 [SB 431542]
generation of Hnk1+ p75+ (Hnk1bright p75bright) neural crest-like population [2]: ineffective

B1: Dickkopf: a Wnt antagonist (R&D Systems) (protein, UniProt O94907 32-266, looked up)
Dickkopf-related protein 1: TLNSVLNSNAIKNLPPPLGGAAGHPGSAVSAAPGILYPGGNKYQTIDNYQPYPCAEDEECGTDEYCASPTRGGDAGVQICLACRKRRKRCMRHAMCCPGNYCKNGICVSSDQNHFRGEIEETITESFGNDHSTLDGYSRRTTLSSKMYHTKGQEGSVCLRSSDCASGLCCARHFWSKICKPVLKEGQVCTKHRRKGSHGLEIFQRCYCGEGLSCRIQKDHHQASNSSRLHTCQRH
p75bright cells in NPC cultures ([2]; NPC cultures obtained by treatment with Noggin and SB 431542): decreases the p75bright population; also recorded: severely reduced the low level of p75^bright cells

B2: Noggin: BMP inhibitor protein (R&D systems) (protein, UniProt Q13253 28-232, looked up)
Noggin: QHYLHIRPAPSDNLPLVDLIEHPDPIFDPKEKDLNETLLRSLLGGHYDPGFMATSPPEDRPGGGGGAAGGAEDLAELDQLLRQRPSGAMPSEIKGLEFSEGLAQGKKQRLSKKLRRKLQMWLWSQTFCPVLYAWNDLGSRFWPRYVKVGSCFSKRSCSVPEGMVCKPSKSVHLTVLRWRCQRRGGQRCGWIPIQYPIISECKCSC
generation of Hnk1+ p75+ (Hnk1bright p75bright) neural crest-like population [2]: no major impact

B3: BMP4: bone morphogenic protein added to SB media (R&D Systems) (protein, UniProt P12644 293-408, looked up)
Bone morphogenetic protein 4: SPKHHSQRARKKNKNCRRHSLYVDFSDVGWNDWIVAPPGYQAFYCHGDCPFPLADHLNSTNHAIVQTLVNSVNSSIPKACCVPTELSAISMLYLDEYDKVVLKNYQEMVVEGCGCR
generation of Hnk1+ p75+ (Hnk1bright p75bright) neural crest-like population [2]: suppressed the transition to an Hnk1^bright p75^bright state

B4: Wnt3a: recombinant Wnt protein, Wnt signaling promoter (protein, UniProt P56704 19-352, looked up)
Protein Wnt-3a: SYPIWWSLAVGPQYSSLGSQPILCASIPGLVPKQLRFCRNYVEIMPSVAEGIKIGIQECQHQFRGRRWNCTTVHDSLAIFGPVLDKATRESAFVHAIASAGVAFAVTRSCAEGTAAICGCSSRHQGSPGKGWKWGGCSEDIEFGGMVSREFADARENRPDARSAMNRHNNEAGRQAIASHMHLKCKCHGLSGSCEVKTCWWSQPDFRAIGDFLKDKYDSASEMVVEKHRESRGWVETLRPRYTYFKVPTERDLVYYEASPNFCEPNPETGSFGTRDRTCNVSSHGIDGCDLLCCGRGHNARAERRREKCRCVFHWCCYVSCQECTRVYDVHTCK
generation of Hnk1+ p75+ (Hnk1bright p75bright) neural crest-like population [2]: can substitute for BIO
proportion of Hnk1bright p75bright cells [2]: increased the proportion of Hnk1^bright p75^bright cells in a dose-dependent manner
